Data on 2 compounds can be found in ChEMBL document CHEMBL2346515, “Discovery of 4-alkylamino-7-aryl-3-cyanoquinoline LRRK2 kinase inhibitors” (Bioorg Med Chem Lett, 2013).

Data set [1] addresses Rho-associated protein kinase 2 (Homo sapiens) (UniProt O75116). The data set can be described thus: Inhibition of ROCK2 (unknown origin) at 10 uM by single point assay.
The target in data set [2] is Serine/threonine-protein kinase MARK2 (Homo sapiens) (UniProt Q7KZI7). The data set is described as follows: Inhibition of MARK2 (unknown origin) at 10 uM by single point assay.
The target of data set [3] is T1, Dual specificity protein kinase TTK (Homo sapiens) (UniProt P33981).
T1 sequence (whole entry): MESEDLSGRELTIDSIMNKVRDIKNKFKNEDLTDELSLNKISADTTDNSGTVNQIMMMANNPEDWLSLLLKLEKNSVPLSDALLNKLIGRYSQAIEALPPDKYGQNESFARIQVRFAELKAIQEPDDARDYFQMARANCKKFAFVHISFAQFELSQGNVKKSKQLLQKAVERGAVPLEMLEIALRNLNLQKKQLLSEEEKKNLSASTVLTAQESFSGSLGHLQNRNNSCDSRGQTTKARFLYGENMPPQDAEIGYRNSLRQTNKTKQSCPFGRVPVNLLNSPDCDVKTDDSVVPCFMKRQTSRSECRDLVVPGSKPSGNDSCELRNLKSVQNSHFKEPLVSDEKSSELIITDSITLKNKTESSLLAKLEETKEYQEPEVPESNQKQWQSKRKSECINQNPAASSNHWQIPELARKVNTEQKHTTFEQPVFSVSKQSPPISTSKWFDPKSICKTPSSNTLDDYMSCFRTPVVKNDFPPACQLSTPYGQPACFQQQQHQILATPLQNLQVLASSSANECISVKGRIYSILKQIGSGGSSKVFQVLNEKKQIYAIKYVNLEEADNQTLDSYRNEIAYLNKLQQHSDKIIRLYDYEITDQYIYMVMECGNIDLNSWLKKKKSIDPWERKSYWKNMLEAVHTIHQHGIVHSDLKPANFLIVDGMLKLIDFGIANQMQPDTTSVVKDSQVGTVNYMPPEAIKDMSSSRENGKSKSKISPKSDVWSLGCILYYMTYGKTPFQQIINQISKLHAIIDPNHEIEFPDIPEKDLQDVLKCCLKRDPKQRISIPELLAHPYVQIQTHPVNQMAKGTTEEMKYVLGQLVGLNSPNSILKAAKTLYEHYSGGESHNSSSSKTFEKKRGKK
The data set can be described thus: Inhibition of TTK (unknown origin) at 10 uM by single point assay.

For the next data set, the system named is Plasma. The data set can be described thus: Plasma concentration in mouse expressing mouse LRRK2 G2019S mutant at 30 mg/kg, po. The data set is classed as ADME, organism-based. Also noted: dose 30 mg/kg, route oral. As to conditions: in vivo.
The next data set deals with Mus musculus. The data set is described as follows: In vivo inhibition of mouse LRRK2 G2019S mutant phosphorylation at Ser935 expressed in mouse brain at 100 mg/kg, po measured after 3 hrs by ELISA. In kind it is functional.

As a reminder, the inhibition is the relative decrease from the control value, in per cent. As a reminder, the inhibition in vivo is the drop in the measured response relative to a control, in per cent. Read a low inhibition in vivo as a weak effect.

Sequence of Serine/threonine-protein kinase MARK2 (Homo sapiens) (Q7KZI7 whole entry): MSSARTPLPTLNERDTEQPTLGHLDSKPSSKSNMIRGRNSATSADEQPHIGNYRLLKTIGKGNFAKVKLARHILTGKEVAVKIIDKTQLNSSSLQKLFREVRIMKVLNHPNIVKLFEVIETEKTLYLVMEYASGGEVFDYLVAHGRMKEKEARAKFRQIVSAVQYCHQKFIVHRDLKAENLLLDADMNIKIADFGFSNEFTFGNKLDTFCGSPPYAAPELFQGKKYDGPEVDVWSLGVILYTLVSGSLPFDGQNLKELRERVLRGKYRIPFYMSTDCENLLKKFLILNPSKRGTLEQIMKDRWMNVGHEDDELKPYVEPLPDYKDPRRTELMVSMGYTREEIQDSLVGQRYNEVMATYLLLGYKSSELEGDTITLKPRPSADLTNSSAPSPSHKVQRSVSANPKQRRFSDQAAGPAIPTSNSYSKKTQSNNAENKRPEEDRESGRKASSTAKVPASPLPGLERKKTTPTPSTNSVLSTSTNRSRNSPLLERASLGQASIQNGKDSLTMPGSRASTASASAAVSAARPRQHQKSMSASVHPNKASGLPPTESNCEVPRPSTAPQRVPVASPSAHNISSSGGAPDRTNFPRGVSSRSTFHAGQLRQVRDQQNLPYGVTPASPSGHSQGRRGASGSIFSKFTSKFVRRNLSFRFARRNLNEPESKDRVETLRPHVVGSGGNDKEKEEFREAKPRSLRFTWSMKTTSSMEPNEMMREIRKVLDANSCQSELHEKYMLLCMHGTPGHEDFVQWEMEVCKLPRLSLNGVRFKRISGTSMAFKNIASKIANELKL
Sequence of Rho-associated protein kinase 2 (Homo sapiens) (O75116 whole entry, looked up): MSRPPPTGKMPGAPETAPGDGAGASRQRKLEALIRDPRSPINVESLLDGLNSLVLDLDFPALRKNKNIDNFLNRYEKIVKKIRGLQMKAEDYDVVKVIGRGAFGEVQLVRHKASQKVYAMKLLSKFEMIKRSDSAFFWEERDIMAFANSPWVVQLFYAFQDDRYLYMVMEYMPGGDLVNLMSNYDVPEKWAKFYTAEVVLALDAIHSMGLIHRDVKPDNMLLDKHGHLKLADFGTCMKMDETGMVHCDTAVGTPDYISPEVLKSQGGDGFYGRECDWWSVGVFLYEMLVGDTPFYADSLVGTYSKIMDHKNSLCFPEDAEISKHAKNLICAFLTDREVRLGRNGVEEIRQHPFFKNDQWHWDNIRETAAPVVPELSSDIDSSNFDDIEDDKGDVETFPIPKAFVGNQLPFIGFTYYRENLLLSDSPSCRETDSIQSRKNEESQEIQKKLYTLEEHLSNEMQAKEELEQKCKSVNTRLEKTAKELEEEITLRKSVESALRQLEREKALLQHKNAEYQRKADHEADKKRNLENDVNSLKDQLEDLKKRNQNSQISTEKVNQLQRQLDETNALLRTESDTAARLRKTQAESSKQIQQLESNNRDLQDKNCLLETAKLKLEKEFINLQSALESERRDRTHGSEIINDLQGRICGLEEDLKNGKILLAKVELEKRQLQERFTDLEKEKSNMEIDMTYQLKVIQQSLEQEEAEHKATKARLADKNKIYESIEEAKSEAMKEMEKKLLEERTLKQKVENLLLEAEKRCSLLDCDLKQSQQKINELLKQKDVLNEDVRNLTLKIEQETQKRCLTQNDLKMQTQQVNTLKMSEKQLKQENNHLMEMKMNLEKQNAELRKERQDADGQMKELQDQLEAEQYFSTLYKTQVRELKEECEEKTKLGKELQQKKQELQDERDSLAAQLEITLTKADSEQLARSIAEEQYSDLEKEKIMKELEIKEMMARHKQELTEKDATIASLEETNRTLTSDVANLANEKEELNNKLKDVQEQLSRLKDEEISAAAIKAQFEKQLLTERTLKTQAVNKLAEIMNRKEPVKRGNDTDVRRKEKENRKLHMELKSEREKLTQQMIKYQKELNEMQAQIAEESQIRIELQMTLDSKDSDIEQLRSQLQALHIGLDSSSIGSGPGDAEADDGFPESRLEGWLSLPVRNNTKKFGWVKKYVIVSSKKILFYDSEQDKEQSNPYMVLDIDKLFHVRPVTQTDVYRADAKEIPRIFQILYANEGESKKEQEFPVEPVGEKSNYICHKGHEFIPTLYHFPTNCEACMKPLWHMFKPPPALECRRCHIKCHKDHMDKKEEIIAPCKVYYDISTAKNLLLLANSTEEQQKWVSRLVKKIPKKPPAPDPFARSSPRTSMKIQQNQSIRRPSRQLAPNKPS

On to `C[C@@H](Nc1c(C#N)cnc2cc(-c3ccc(-n4ccoc4=O)cc3)ccc12)C1CC1`, for which the inhibition in data set [1] worked out at 16%; in data set [2], 40%; in data set [3], 11%.

The compound `CC(C)Nc1c(C#N)cnc2cc(-c3cnn(C)c3)ccc12` returned a Cp in the data set with Plasma of 4.7 ng/mL. Besides, the inhibition in vivo at 100 mg/kg in the data set with Mus musculus came out at 44%.
